# Test results taken from ChEMBL document CHEMBL1201862, “PubChem BioAssay data set” (2004).
# Activity calls are given as the source filed them.
# Tests used:
# [1] = biological target: DNA dC->dU-editing enzyme APOBEC-3G (Homo sapiens, UniProt Q9HC16); assay: Dose Response confirmation of small molecule APOBEC3G DNA Deaminase Inhibitors via a fluorescence-based single-stranded DNA deaminase assay. [Related pubchem assays (depositor defined):AID493012, AID493028]; assay type: functional
# [2] = Luminescence Cell-Based Dose Retest to Confirm Inhibitors of Cancer Stem Cells. [Related pubchem assays (depositor defined):AID2717, AID2721]; assay type: functional; conditions: Homo sapiens
# [3] = biological target: Peroxisome proliferator-activated receptor gamma/Nuclear receptor coactivator 1 (Homo sapiens, UniProt P37231); assay: TR-FRET dose response biochemical High Throughput Screening assay for agonists of the steroid receptor coactivator 1 (SRC-1) recruitment by the peroxisome proliferator-activated receptor gamma (PPAR gamma): non-selective agonists. [Related pubchem assays (depositor defined):AID1300, AID1808, AID504735, AID631]; assay type: protein assay
# [4] = biological target: Peroxisome proliferator-activated receptor gamma/Nuclear receptor coactivator 2 (Homo sapiens, UniProt P37231); assay: TR-FRET dose response biochemical High Throughput Screening assay for agonists of the steroid receptor coactivator 2 (SRC-2) recruitment by the peroxisome proliferator-activated receptor gamma (PPAR gamma): non-selective agonists. [Related pubchem assays: 1297, 1032 ]; assay type: functional
# [5] = biological target: Peroxisome proliferator-activated receptor gamma/Nuclear receptor coactivator 3 (Homo sapiens, UniProt P37231); assay: TR-FRET dose response biochemical High Throughput Screening assay for agonists of the steroid receptor coactivator 3 (SRC-3) recruitment by the peroxisome proliferator-activated receptor gamma (PPAR gamma): non-selective agonists. [Related pubchem assays: 1301 (Confirmation screen.), 1048 (Primary screen.)]; assay type: functional
# [6] = biological target: T1, Rac GTPase-activating protein 1 (Homo sapiens, UniProt Q9H0H5); assay: blockers of MgcRacGAP-driven Rac1 GTP hydrolysis – biochemical, ADP Hunter fluorescence, primary and confirmatory, confirmation (AID 624330); assay type: functional
# T1 sequence (Q9H0H5 whole entry): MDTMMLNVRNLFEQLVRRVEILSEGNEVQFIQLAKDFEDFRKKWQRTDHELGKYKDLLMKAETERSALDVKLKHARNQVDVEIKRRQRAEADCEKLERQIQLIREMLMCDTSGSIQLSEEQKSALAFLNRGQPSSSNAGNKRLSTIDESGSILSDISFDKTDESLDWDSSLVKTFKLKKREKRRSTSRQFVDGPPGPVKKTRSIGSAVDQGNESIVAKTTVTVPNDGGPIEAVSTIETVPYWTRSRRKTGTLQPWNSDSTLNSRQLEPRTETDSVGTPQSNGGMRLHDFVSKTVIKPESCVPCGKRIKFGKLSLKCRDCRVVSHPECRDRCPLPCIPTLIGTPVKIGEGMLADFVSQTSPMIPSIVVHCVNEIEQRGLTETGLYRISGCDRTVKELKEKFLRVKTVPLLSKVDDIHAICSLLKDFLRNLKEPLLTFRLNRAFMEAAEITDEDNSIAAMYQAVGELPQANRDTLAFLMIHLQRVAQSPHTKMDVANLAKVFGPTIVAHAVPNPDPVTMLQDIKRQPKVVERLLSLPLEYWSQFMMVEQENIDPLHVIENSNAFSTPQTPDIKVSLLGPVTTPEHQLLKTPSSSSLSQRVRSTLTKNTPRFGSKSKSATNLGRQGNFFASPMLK
# [7] = system: H9c2; assay: cells; assay type: functional, cell-based; conditions: Rattus norvegicus, H9c2, Myocardium;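 also: confirmatory concentration-response retest of ultra-high-throughput screening hits for modulation of myocardial damage; cell death induced by hydrogen peroxide oxidative stress; compound pretreatment for 60 min then peroxide exposure for 2 h; potency is for protecting the cells against peroxide damage rather than for killing them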
# [8] = intracellular Trypanosoma cruzi inhibitors in host cells – cell-based, plate reader, cherry-pick samples, set 3, dose response (AID 651818); assay type: functional;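 also: compounds incubated with infected cells for about four days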
# [9] = biological target: T2, Corticotropin-releasing factor receptor 2/Corticotropin-releasing factor-binding protein (Homo sapiens, UniProt P24387+Q13324); assay: activators of CRF receptor 2 with binding protein – uHTS hits, confirmation (AID 602473); assay type: functional; conditions: read-out: EC50_Mean
# T2 sequence (Q13324 whole entry): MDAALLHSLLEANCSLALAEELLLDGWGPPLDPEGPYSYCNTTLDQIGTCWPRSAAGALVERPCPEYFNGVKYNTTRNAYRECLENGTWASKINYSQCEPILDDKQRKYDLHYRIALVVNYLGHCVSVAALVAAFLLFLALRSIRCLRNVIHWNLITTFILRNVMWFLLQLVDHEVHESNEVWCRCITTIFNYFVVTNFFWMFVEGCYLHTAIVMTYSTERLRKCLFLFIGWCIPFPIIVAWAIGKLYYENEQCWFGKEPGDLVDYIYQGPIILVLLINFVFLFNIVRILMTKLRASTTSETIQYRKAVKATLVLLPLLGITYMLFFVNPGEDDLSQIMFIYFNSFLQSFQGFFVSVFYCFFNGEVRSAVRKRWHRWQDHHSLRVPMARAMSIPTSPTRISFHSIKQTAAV
# T2 sequence (P24387 whole entry): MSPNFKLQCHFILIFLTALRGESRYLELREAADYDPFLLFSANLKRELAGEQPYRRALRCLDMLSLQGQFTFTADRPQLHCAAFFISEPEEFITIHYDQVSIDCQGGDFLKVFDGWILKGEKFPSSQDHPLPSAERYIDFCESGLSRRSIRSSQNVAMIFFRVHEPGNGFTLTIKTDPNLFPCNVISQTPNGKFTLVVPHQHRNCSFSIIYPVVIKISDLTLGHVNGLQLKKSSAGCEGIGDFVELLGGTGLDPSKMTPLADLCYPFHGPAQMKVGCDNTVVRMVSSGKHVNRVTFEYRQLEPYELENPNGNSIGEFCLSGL
# [10] = biological target: T2, Corticotropin-releasing factor receptor 2/Corticotropin-releasing factor-binding protein; assay: Dose Response confirmation of uHTS hits for small molecule antagonists of the CRF-binding protein and CRF-R2 receptor complex.; assay type: functional; conditions: read-out: IC50_Mean
# [11] = biological target: Glucose-6-phosphate 1-dehydrogenase (Homo sapiens, UniProt P11413); assay: inhibition of Homo sapiens G6PD, dose series – biochemical, fluorescence, selectivity assay for P. falciparum G6PD inhibitor project, dose response (AID 504792); assay type: functional
# [12] = biological target: Induced myeloid leukemia cell differentiation protein Mcl-1 (Homo sapiens, UniProt Q07820); assay type: functional
# [13] = Luminescence Cell-Based Dose Response HTS to Identify Inhibitors of 5'UTR Stem-Loop Driven Prion Protein mRNA Translation in H4 Neuroglioblastoma Cells. [Related pubchem assays: 1827 (Project Summary), 1813 (Primary HTS)]; assay type: functional
# [14] = luciferase reporter signal suppression in cells – H4 neuroglioma cells, luminescence, dose response (AID 1990); assay type: functional, cell-based
# [15] = alpha-synuclein stem-loop luciferase translation blockers – H4 neuroglioma cells, luminescence, confirmation (AID 1988); assay type: functional, cell-based
# [16] = NIH3T3 cell viability loss – ATP luminescence, mouse fibroblasts, counter-screen, dose response (AID 2010); assay type: functional, cell-based;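 also: cells exposed to compound for about 90 hours before reading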
# [17] = Trypanosoma cruzi growth suppression in host cells – NIH3T3 host cells, beta-gal luminescence, confirmation (AID 2044); assay type: functional, cell-based;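 also: intracellular parasites grown in NIH/3T3 mouse fibroblasts as host cells; luminescent beta-galactosidase reporter signal from transgenic T. cruzi replicating inside host cells; inhibitors lower the luminescence signal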
# [18] = system: BJ; assay: cells; assay type: functional, cell-based; conditions: Homo sapiens
# [19] = system: BJ; assay: BJ-TERT-LT-ST fibroblast viability loss – cell-based, RAS-independent, luminescence, dose response (AID 1935); assay type: functional; conditions: Homo sapiens;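 also: BJ fibroblasts immortalized with TERT plus LT and ST oncogenes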
# [20] = system: BJ; assay: BJ-TERT fibroblast viability loss – cell-based, RAS-independent, luminescence, dose response (AID 1933); assay type: functional; conditions: Homo sapiens
# [21] = DRD fibroblast viability loss – cell-based, non-viral oncogenic, luminescence, dose response (AID 1934); assay type: functional; conditions: Homo sapiens
# [22] = viability of uninfected HEp-2 cells – cell-based, HTS, cytotoxicity control for RSV inhibitor project, dose response (AID 2410); assay type: functional; conditions: human respiratory syncytial virus
# [23] = microbe, parasite or virus in culture; assay type: functional; conditions: Mycobacterium tuberculosis
# [24] = biological target: FAD-linked sulfhydryl oxidase ALR (Homo sapiens, UniProt P55789); assay: ALR-catalysed DTT oxidation blockers – biochemical, H2O2 detection, luminescence, cherry-pick, dose response (AID 493248)
# [25] = biological target: Cytochrome P450 3A4 (Homo sapiens, UniProt P08684);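 also: CYP3A4 tested as one member of a cytochrome P450 panel screen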
# DNA dC->dU-editing enzyme APOBEC-3G, sequence (Q9HC16 whole entry): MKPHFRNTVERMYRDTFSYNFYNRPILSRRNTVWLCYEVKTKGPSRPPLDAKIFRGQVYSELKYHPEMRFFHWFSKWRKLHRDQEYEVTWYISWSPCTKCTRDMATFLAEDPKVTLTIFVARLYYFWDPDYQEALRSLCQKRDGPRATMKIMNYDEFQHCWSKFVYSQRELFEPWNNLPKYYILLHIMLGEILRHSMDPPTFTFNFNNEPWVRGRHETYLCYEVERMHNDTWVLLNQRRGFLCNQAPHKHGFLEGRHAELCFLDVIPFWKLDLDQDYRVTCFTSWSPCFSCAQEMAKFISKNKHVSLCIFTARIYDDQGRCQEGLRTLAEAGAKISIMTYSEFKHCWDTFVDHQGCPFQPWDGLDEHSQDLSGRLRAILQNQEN
# Glucose-6-phosphate 1-dehydrogenase, sequence (P11413 whole entry): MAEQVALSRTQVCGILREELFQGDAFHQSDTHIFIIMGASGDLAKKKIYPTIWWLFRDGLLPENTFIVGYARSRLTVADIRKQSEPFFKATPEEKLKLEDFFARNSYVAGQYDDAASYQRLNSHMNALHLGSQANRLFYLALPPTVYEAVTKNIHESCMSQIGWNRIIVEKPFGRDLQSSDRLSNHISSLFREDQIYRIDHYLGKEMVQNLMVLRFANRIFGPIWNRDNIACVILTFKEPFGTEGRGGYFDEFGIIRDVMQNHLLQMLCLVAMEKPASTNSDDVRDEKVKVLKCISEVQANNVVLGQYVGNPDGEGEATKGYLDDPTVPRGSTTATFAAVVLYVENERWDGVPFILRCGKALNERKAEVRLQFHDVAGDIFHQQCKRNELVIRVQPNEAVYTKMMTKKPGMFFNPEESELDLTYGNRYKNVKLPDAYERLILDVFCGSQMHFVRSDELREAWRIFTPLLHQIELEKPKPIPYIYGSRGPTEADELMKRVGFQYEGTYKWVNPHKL
# Peroxisome proliferator-activated receptor gamma/Nuclear receptor coactivator 3, sequence (P37231 whole entry): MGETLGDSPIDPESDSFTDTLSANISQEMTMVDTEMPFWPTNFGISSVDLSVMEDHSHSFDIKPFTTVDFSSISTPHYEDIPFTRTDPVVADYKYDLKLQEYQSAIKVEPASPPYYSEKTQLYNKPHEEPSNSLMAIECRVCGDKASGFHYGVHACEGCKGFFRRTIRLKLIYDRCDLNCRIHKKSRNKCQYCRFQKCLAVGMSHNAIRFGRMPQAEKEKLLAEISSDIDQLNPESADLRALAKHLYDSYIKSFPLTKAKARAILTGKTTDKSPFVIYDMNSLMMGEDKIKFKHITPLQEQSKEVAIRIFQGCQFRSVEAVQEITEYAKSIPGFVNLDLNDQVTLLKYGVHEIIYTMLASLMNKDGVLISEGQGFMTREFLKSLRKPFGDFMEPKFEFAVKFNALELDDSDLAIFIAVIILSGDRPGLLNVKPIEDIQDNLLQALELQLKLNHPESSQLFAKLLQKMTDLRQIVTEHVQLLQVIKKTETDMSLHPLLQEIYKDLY
# Peroxisome proliferator-activated receptor gamma/Nuclear receptor coactivator 3, sequence (Q9Y6Q9 whole entry, further chain): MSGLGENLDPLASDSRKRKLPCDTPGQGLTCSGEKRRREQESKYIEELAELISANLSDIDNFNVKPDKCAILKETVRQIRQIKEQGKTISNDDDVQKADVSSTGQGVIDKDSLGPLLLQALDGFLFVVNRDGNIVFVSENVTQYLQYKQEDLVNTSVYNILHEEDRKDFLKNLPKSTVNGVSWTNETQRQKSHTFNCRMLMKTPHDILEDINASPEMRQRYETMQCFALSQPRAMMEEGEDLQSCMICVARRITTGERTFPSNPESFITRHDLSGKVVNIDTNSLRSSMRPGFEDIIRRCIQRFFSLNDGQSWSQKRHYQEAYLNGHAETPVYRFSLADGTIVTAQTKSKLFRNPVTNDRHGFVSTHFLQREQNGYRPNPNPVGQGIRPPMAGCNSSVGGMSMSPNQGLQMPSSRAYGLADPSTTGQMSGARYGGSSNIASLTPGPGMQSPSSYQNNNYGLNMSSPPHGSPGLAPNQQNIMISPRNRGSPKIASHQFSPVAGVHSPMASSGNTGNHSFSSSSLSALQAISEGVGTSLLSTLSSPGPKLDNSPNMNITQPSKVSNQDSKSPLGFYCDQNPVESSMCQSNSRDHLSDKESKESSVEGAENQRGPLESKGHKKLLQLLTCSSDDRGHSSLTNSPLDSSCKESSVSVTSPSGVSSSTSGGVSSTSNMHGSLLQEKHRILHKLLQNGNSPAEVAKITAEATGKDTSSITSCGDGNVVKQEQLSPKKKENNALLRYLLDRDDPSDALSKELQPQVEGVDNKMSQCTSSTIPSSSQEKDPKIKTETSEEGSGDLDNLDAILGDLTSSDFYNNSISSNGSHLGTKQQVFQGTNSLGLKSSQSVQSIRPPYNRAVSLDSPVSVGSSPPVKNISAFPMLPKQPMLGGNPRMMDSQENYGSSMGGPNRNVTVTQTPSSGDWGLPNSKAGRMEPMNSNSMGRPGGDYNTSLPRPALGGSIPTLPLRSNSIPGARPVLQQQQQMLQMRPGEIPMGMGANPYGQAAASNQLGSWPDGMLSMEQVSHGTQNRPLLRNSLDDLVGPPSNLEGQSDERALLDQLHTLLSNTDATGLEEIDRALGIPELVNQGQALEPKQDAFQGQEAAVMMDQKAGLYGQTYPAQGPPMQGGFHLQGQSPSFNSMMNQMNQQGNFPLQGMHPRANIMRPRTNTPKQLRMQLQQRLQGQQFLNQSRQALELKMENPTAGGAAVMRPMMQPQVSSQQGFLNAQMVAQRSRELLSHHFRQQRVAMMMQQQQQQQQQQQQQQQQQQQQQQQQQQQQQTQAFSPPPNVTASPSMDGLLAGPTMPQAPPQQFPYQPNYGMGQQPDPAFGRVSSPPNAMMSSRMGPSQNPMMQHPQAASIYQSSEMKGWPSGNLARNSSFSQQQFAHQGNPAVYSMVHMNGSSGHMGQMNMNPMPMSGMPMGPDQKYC
# Peroxisome proliferator-activated receptor gamma/Nuclear receptor coactivator 2, sequence (P37231 whole entry): as the sequence (P37231 whole entry) above
# Peroxisome proliferator-activated receptor gamma/Nuclear receptor coactivator 2, sequence (Q15596 whole entry, further chain): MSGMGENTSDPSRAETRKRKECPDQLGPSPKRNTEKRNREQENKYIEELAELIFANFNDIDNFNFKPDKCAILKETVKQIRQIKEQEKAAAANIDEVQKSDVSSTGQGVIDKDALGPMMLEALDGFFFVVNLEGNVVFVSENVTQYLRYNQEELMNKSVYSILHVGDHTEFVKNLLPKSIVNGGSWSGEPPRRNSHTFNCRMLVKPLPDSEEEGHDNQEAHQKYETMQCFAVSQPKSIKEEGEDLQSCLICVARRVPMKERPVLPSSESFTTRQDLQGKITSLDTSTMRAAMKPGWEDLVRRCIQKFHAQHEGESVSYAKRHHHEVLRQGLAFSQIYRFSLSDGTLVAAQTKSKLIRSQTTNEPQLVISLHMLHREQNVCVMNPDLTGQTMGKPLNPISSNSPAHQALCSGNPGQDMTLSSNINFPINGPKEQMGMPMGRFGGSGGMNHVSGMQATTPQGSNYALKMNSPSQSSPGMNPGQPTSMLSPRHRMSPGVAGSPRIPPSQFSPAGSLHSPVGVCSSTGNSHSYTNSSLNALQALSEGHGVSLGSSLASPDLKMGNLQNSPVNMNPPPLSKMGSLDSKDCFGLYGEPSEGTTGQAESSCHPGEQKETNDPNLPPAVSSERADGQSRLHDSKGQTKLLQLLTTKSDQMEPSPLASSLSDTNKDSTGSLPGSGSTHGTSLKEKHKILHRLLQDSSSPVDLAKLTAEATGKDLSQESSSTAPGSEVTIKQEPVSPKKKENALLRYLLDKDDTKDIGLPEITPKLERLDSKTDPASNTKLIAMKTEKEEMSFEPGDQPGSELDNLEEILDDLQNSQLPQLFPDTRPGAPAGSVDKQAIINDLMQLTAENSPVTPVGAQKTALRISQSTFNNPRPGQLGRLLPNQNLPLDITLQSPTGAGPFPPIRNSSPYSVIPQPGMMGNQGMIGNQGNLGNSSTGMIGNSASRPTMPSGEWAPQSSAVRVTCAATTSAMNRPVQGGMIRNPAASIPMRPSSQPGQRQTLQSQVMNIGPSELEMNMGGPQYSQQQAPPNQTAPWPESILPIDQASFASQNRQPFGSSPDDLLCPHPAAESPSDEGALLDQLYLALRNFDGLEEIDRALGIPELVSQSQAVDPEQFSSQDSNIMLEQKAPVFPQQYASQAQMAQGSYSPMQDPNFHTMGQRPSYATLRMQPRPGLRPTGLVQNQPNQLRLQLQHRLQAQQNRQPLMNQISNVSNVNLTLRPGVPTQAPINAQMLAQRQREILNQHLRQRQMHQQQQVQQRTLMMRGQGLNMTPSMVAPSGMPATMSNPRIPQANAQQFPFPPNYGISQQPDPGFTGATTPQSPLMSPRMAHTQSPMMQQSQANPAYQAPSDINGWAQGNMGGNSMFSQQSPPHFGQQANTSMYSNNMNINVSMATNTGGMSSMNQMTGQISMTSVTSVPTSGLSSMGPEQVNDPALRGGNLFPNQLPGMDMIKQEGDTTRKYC
# FAD-linked sulfhydryl oxidase ALR, sequence (P55789 whole entry): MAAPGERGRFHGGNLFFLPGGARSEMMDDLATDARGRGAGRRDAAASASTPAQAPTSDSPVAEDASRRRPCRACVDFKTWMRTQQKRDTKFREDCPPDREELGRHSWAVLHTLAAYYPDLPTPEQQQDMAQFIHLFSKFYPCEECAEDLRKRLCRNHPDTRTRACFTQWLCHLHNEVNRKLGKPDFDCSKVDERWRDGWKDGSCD
compound,measurement,setting,value
CCCCCCn1c(SCC(=O)OC)nc2c1c(=O)[nH]c(=O)n2C,IC50,[1],51.6 µM (active)
C=CCn1c(-c2cc(OC)cc(OC)c2)n[nH]c1=S,IC50,[1],8.23 µM (active)
CCN(CC(=O)NC1CCCCC1)S(=O)(=O)c1ccc(Cl)cc1,AC50,[2],> 195 µM (inactive)
Cc1ccc(Cl)cc1-c1ccc(/C=N/c2ccc(N3CCOCC3)cc2)o1,EC50,[3],27.9 µM (inactive)
same,EC50,[4],19.4 µM (not active)
same,EC50,[5],> 79.4 µM (not active)
same,IC50,[6],11.2 µM (active)
COc1cc(/C=C(\C#N)c2nc3cc(C)ccc3[nH]2)c([N+](=O)[O-])cc1OC,IC50,[7],> 79 µM (inactive)
CN1CCN(C(=O)CSc2cc(=O)n(C)c3ccccc23)CC1,EC50,[3],> 79.4 µM (inactive)
same,EC50,[4],> 79.4 µM (not active)
same,EC50,[5],> 79.4 µM (not active)
COc1ccc(S(=O)(=O)Nc2ccc3c(c2)CC(=O)N([C@H](C)CO)C[C@@H](C)[C@H](CN(C)Cc2ccc4c(c2)OCO4)O3)cc1,AC50,[8],5.51 µM (active)
O=C(c1ccccc1)c1nn(-c2ccc(Cl)cc2)cc1C(=O)c1cc2ccccc2oc1=O,EC50,[9],> 53 µM (inactive)
same,IC50,[10],> 47.1 µM (inactive)
CCOC(=O)c1c(NC(=O)COC(=O)c2ccc(O)cc2)sc(C(=O)N(C)C)c1C,IC50,[7],> 79 µM (inactive)
COc1ccc2sc(-c3ccc(SC)cc3)c(C#CC(C)(C)O)c2c1,AC50,[2],2.26 µM (active)
Nc1nc(O)nc(O)c1N=Cc1ccccc1,IC50,[11],63.8 µM (inactive)
O=C(CCSCCC(=O)NN=Cc1ccccc1)NN=Cc1ccccc1,IC50,[11],55.2 µM (inactive)
CNc1nnc(S)s1,IC50,[1],17.6 µM (active)
CSc1nc2ncc3c(n2n1)CC1c2ccccc2CCN1C3=O (stereo unspecified),IC50,[7],15.1 µM (active)
O=C(COC(=O)CCc1nc(O)c2ccccc2n1)NCc1ccc(F)cc1,IC50,[7],> 79 µM (inactive)
CSc1nc(Sc2ccccc2Cl)c2ccccc2n1,EC50,[3],> 79.4 µM (inactive)
same,EC50,[4],> 79.4 µM (not active)
same,EC50,[5],> 79.4 µM (not active)
O=S(=O)(NCc1csc(-c2ccccc2)n1)c1ccc(Cl)s1,IC50,[11],> 80 µM (inactive)
CCN1C(=O)C(C)S/C1=N\S(=O)(=O)c1ccc(F)cc1 (stereo unspecified),IC50,[12],4.37 µM (not active)
Cc1noc(NS(=O)(=O)c2ccc(N/C=C\C(=O)c3cccc4ccccc34)cc2)c1C,EC50,[9],> 53 µM (inactive)
same,IC50,[10],> 47.1 µM (inactive)
Cc1ccc(CNC(=O)CSc2c3c(nc4cc(Cl)ccc24)CCCC3)o1,EC50,[3],> 79.4 µM (inactive)
same,EC50,[4],> 79.4 µM (not active)
same,EC50,[5],> 79.4 µM (not active)
Cc1cccc(CN2C(=O)/C(=C\c3ccc(C(=O)NCCCN4CCN(C)CC4)cc3)Oc3ccccc32)c1,AC50,[2],3.6 µM (active)
same,EC50,[13],> 120 µM (not active)
same,EC50,[14],10.6 µM (active)
same,EC50,[15],> 120 µM (not active)
CCC(CC)c1nnc(NC(=O)COc2ccc3c(c2)OCO3)s1,IC50,[1],53.2 µM (active)
CCCNC(=O)Cn1sc2nc(C)cc(C)c2c1=O,EC50,[16],9.56 µM (active)
same,EC50,[17],3.08 µM (active)
same,IC50,[11],45.5 µM (inactive)
same,IC50,[1],5.41 µM (active)
CCN1CCCC1CNC(=O)c1ccc2c(c1)NC(=O)/C(=C\c1ccccc1Cl)S2 (stereo unspecified),IC50,[11],> 80 µM (inactive)
Cc1ccc(NC(=S)N/N=C/c2c(Cl)cccc2Cl)c(C)c1,EC50,[18],3.48 µM (inconclusive)
same,EC50,[19],3.99 µM (inconclusive)
same,AC50,[2],0.368 µM (active)
same,EC50,[20],2.66 µM (active)
same,EC50,[21],2.58 µM (active)
Cc1cccc2sc(NC(=O)C3c4ccccc4Oc4ccccc43)nc12,AC50,[2],2.83 µM (active)
same,CC50,[22],15.1 µM (active)
COc1cc(NC(=O)c2cc([N+](=O)[O-])ccc2NC(=O)CN2CCN(c3ccccn3)CC2)cc(OC)c1,IC50,[7],10.8 µM (active)
COc1cc(OC)c2ccc(=O)oc2c1C(CCN1CCOCC1)c1ccc2c(c1)OCO2 (stereo unspecified),EC50,[9],> 53 µM (inactive)
same,IC50,[10],> 47.1 µM (inactive)
CCn1c(=O)cc(SCC(=O)N(C)Cc2ccccc2)c2ccccc21,EC50,[3],> 79.4 µM (inactive)
same,EC50,[4],> 79.4 µM (not active)
same,EC50,[5],> 79.4 µM (not active)
CCNc1nc(Nc2ccc(C)c(Cl)c2)c2cnn(C)c2n1,CC50,[23],> 40 µM (active)
COc1ccc(NC(=S)N2CCC(N(C)CCN3CCOCC3)CC2)cc1Cl,EC50,[9],> 53 µM (inactive)
same,IC50,[10],> 47.1 µM (inactive)
Cc1ccc(S(=O)(=O)NNc2ccccc2)cc1,IC50,[11],> 80 µM (inactive)
same,AC50,[24],0.623 µM (active)
same,AC50,[25],28.2 µM (inconclusive)
Cn1c(=O)c2c(nc(NCCCO)n2C/C=C/c2ccccc2)n(C)c1=O,IC50,[7],> 79 µM (inactive)
